Experimental data published in patent publication US6608082B1, “Treatment of erectile dysfunction using isoquinoline compound melanocortin receptor ligands” (Lion Bioscience AG, priority 1998, dated 2003).
Where two headings read alike, the source gives them in different places.

Target: T1, MCR-1 (Homo sapiens, UniProt Q01726)
T1 construct: expressed in transfected cells; host or cells: HEK 293
Experiment: Melanocortin receptor binding assay, competition with 125I-HP 467, HEK 293 cells expressing hMCR-1
Details: for % Disp. MC-1 10 μM: displacement of 125I-HP 467 at 10 μM isoquinoline compound; for % Disp. of 125I-HP 467 (first of duplicate) / % Disp. of 125I-HP 467 (second of duplicate): 10 μM isoquinoline compound; for % Disp. of 125I-HP 467 (first of duplicate): HEK 293 cells expressing MCR-1, duplicate 1; for % Disp. of 125I-HP 467 (second of duplicate): HEK 293 cells expressing MCR-1, duplicate 2; for IC50: read-out: MC-1 IC50
Method: All cell culture media and reagents were obtained from GibcoBRL (Gaithersburg Md.), except for COSMIC CALF SERUM (HyClone; Logan Utah).
Cells were suspended in PBS, 10% COSMIC CALF SERUM and 1 mM CaCl2. Cell suspensions were prepared at a density of 2×10^4 cells/ml for HEK 293 cells expressing hMCR-3, hMCR-4 or hMCR-5, and 1×10^5 cells/ml for HEK 293 cells expressing hMCR-1. Suspensions were placed in a water bath and allowed to warm to 37° C. for 1 hr.
Binding assays were performed in a total volume of 250 μl for HEK 293 cells. […] To each tube was added 4×10^3 HEK 293 cells expressing hMCR-3, hMCR-4 or hMCR-5, or 2×10^4 cells expressing hMCR-1. Assays were incubated for 2.5 hr at 37° C.
GF/B filter plates were prepared by soaking for at least one hour in 5 mg/ml BSA and 10 mM CaCl2. Assays were filtered using a Brandel 96-well cell harvester (Brandel Inc.; Gaithersburg, Md.). The filters were washed four times with cold 50 mM Tris, pH 7.4, the filter plates were dehydrated for 2 hr and 35 μl of MICROSCINT was added to each well. Filter plates were counted using a Packard Topcount (Packard Instrument Co.) and data analyzed using GraphPad PRISM v2.0 (GraphPad Software Inc.; San Diego Calif.) and Microsoft EXCEL v5.0a (Microsoft Corp.; Redmond Wash.).
To assay isoquinoline compounds, binding assays were performed in duplicate in a 96 well format. […] A 0.2 ml aliquot of suspended cells was added to each well to give the cell numbers indicate above, and the cells were incubated at 37° C. for 2.5 hr. Cells were harvested on GF/B filter plates as described above and counted.

[1] = competition with 125I-HP 467, HEK 293 cells expressing MCR-1
[2] = inhibition of binding of 125I-HP 467, HEK 293 cells expressing MCR-1

T1 sequence (Q01726 whole entry): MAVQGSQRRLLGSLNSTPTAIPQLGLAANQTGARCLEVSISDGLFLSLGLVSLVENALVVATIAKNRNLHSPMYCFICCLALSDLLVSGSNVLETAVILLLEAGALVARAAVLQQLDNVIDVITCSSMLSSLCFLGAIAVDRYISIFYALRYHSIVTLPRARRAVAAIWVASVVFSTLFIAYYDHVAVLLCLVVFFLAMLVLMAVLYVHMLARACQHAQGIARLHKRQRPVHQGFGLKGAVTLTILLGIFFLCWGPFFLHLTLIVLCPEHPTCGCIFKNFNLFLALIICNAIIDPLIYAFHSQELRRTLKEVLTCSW

SMILES	% Disp. MC-1 10 μM (first of duplicate) [%]	% Disp. MC-1 10 μM (second of duplicate) [%]	further results
NCCN1Cc2ccccc2C(CNC2CCCCC2)C1c1ccccc1 (mixture of isomers) [TRG 2405-1]	85.3	24.1	–
CNC(CN)CN1Cc2ccccc2C(CNC2CCCCC2)C1c1ccc2ccccc2n1 (mixture of isomers) [TRG 2405-112]	42.2	43.2	–
CNC(CN)CN1Cc2ccccc2C(CNC2CCCCC2)C1c1cc(C(F)(F)F)cc(C(F)(F)F)c1 (mixture of isomers) [TRG 2405-118]	47.3	58.9	–
CNC(CN)CN1Cc2ccccc2C(CNC2CCCCC2)C1c1cc(Cl)cc(Cl)c1 (mixture of isomers) [TRG 2405-120]	52.4	54.3	–
CNC(CN)CN1Cc2ccccc2C(CNC2CCCCC2)C1c1ccc(OC)c(C)c1 (mixture of isomers) [TRG 2405-136]	49	51.8	–
CNC(CN)CN1Cc2ccccc2C(CNC2CCCCC2)C1c1ccsc1 (mixture of isomers) [TRG 2405-143]	54.6	50.4	–
CNC(CN)CN1Cc2ccccc2C(CNC2CCCCC2)C1c1ccc(Br)cc1 (mixture of isomers) [TRG 2405-152]	52.8	52.9	–
CNC(CN)CN1Cc2ccccc2C(CNC2CCCCC2)C1c1ccc([N+](=O)[O-])c(O)c1 (mixture of isomers) [TRG 2405-160]	26.1	41.7	–
CNC(CN)CN1Cc2ccccc2C(CNC2CCCCC2)C1c1ccc([N+](=O)[O-])cc1 (mixture of isomers) [TRG 2405-161]	58.4	59.1	–
CNC(CN)CCCCN1Cc2ccccc2C(CNC2CCCCC2)C1c1ccccc1O (mixture of isomers) [TRG 2405-182]	–	–	% Disp. of 125I-HP 467 (first of duplicate): 37.5%; % Disp. of 125I-HP 467 (second of duplicate): 44.4%
CNC(CN)CCCCN1Cc2ccccc2C(CNC2CCCCC2)C1c1ccc2c(c1)OCCO2 (mixture of isomers) [TRG 2405-183]	–	–	% Disp. of 125I-HP 467 (first of duplicate): 58.9%; % Disp. of 125I-HP 467 (second of duplicate): 64.1%
CNC(CN)CCCCN1Cc2ccccc2C(CNC2CCCCC2)C1c1cc(Cl)cc(Cl)c1Cl (mixture of isomers) [TRG 2405-187]	–	–	% Disp. of 125I-HP 467 (first of duplicate): 64.6%; % Disp. of 125I-HP 467 (second of duplicate): 59.3%
CNC(CN)CCCCN1Cc2ccccc2C(CNC2CCCCC2)C1c1ccc(F)c(F)c1 (mixture of isomers) [TRG 2405-207]	–	–	% Disp. of 125I-HP 467 (first of duplicate): 65%; % Disp. of 125I-HP 467 (second of duplicate): 65.5%
CNC(CN)CCCCN1Cc2ccccc2C(CNC2CCCCC2)C1c1cccc(Oc2ccc(Cl)c(Cl)c2)c1 (mixture of isomers) [TRG 2405-213]	–	–	% Disp. of 125I-HP 467 (first of duplicate): 80%; % Disp. of 125I-HP 467 (second of duplicate): 78.1%
CNC(CN)CCCCN1Cc2ccccc2C(CNC2CCCCC2)C1c1ccc(OC)c(C)c1 (mixture of isomers) [TRG 2405-226]	–	–	% Disp. of 125I-HP 467 (first of duplicate): 79.1%; % Disp. of 125I-HP 467 (second of duplicate): 77.7%
CNC(CN)CCCCN1Cc2ccccc2C(CNC2CCCCC2)C1c1ccsc1 (mixture of isomers) [TRG 2405-233]	–	–	% Disp. of 125I-HP 467 (first of duplicate): 53.6%; % Disp. of 125I-HP 467 (second of duplicate): 42.8%
CNC(CN)CCCCN1Cc2ccccc2C(CNC2CCCCC2)C1c1ccc(OC)c2ccccc12 (mixture of isomers) [TRG 2405-248]	–	–	% Disp. of 125I-HP 467 (first of duplicate): 56.5%; % Disp. of 125I-HP 467 (second of duplicate): 67.9%
CNC(CN)CCCCN1Cc2ccccc2C(CNC2CCCCC2)C1c1ccc([N+](=O)[O-])c(O)c1 (mixture of isomers) [TRG 2405-250]	–	–	% Disp. of 125I-HP 467 (first of duplicate): 34.7%; % Disp. of 125I-HP 467 (second of duplicate): 50.5%
CNC(CN)CCCCN1Cc2ccccc2C(CNC2CCCCC2)C1c1ccc[nH]1 (mixture of isomers) [TRG 2405-265]	–	–	% Disp. of 125I-HP 467 (first of duplicate): 60.5%; % Disp. of 125I-HP 467 (second of duplicate): 54.1%
CNC(CN)CCCCN1Cc2ccccc2C(CNC2CCCCC2)C1c1ccc(S(C)(=O)=O)cc1 (mixture of isomers) [TRG 2405-267]	–	–	% Disp. of 125I-HP 467 (first of duplicate): 21.5%; % Disp. of 125I-HP 467 (second of duplicate): 8.4%
CNC(C)CNC(CN)CCCCN1Cc2ccccc2C(CNC2CCCCC2)C1c1ccc(-c2ccccc2)cc1 (mixture of isomers) [TRG 2411-15]	–	–	IC50 [1]: 730 nM
NCC(CCCCN1Cc2ccccc2C(CN)C1c1ccc(-c2ccccc2)cc1)NCc1ccccc1 (mixture of isomers) [TRG 2411-35]	–	–	IC50 [1]: 510 nM
CCCCNc1ccc(C2C(CNCCc3ccccc3)c3ccccc3CN2CCCCC(CN)NCCc2ccc(OC)cc2)cc1 (mixture of isomers) [TRG 2411-79]	–	–	IC50 [1]: 370 nM
CCCCNc1ccc(C2C(CN)c3ccccc3CN2CCCCC(CN)NCc2ccc(Cl)cc2)cc1 (mixture of isomers) [TRG 2411-108]	–	–	IC50 [1]: 160 nM

SMILES	% Disp. MC-1 10 μM (first of duplicate) [%]	% Disp. MC-1 10 μM (second of duplicate) [%]	further results
NCC(N)CCCN1Cc2ccccc2C(CN)C1c1ccc(-c2ccccc2)cc1 (mixture of isomers) [TRG 2411-136]	–	–	IC50 [1]: 1730 nM
CNC(C)CNC(CN)CCCN1Cc2ccccc2C(CN)C1c1ccc(-c2ccccc2)cc1 (mixture of isomers) [TRG 2411-142]	–	–	IC50 [1]: 1280 nM
CCNc1ccc(C2C(CN)c3ccccc3CN2CCCC(N)CN)cc1 (mixture of isomers) [TRG 2411-174]	–	–	IC50 [2]: 480 nM
CCNc1ccc(C2C(CN)c3ccccc3CN2CCCC(CN)NCC)cc1 (mixture of isomers) [TRG 2411-176]	–	–	IC50 [2]: 220 nM
CCNc1ccc(C2C(CN)c3ccccc3CN2CCCC(CN)NCCc2ccc3ccccc3c2)cc1 (mixture of isomers) [TRG 2411-185]	–	–	IC50 [2]: 100 nM
CNC(CN)CCCCN1Cc2ccccc2C(CNCCc2ccccc2)C1c1ccc([N+](=O)[O-])cc1 (mixture of isomers) [TRG 2413-5]	–	–	IC50 [2]: 4880 nM
NCCN1Cc2ccccc2C(CNC2CCCCC2)C1c1ccccc1O (centres unmarked) [TRG 2405-2]	42.9	40.8	–
NCCN1Cc2ccccc2C(CNC2CCCCC2)C1c1ccc2c(c1)OCCO2 (centres unmarked) [TRG 2405-3]	46.8	44.2	–
NCCN1Cc2ccccc2C(CNC2CCCCC2)C1c1cccc2ccccc12 (centres unmarked) [TRG 2405-5]	53.6	53.6	–
NCCN1Cc2ccccc2C(CNC2CCCCC2)C1c1ccc(F)c(F)c1F (centres unmarked) [TRG 2405-6]	45.7	50	–
NCCN1Cc2ccccc2C(CNC2CCCCC2)C1c1cc(Cl)cc(Cl)c1Cl (centres unmarked) [TRG 2405-7]	50.3	54.8	–
NCCN1Cc2ccccc2C(CNC2CCCCC2)C1c1cccc2c1OCO2 (centres unmarked) [TRG 2405-8]	0	26.1	–
NCCN1Cc2ccccc2C(CNC2CCCCC2)C1c1cccc(F)c1F (centres unmarked) [TRG 2405-9]	36.4	33.4	–
NCCN1Cc2ccccc2C(CNC2CCCCC2)C1c1ccc(Cl)cc1Cl (centres unmarked) [TRG 2405-10]	56.9	53	–
NCCN1Cc2ccccc2C(CNC2CCCCC2)C1c1c(F)cccc1F (centres unmarked) [TRG 2405-11]	45.1	27	–
NCCN1Cc2ccccc2C(CNC2CCCCC2)C1c1ccccc1Br (centres unmarked) [TRG 2405-12]	38.7	41.8	–
NCCN1Cc2ccccc2C(CNC2CCCCC2)C1c1c(F)cccc1Cl (centres unmarked) [TRG 2405-14]	34.2	29.6	–
NCCN1Cc2ccccc2C(CNC2CCCCC2)C1c1ccccc1CN (centres unmarked) [TRG 2405-15]	23.5	52.5	–
NCCN1Cc2ccccc2C(CNC2CCCCC2)C1c1ccccc1F (centres unmarked) [TRG 2405-16]	26.8	40.3	–
NCCN1Cc2ccccc2C(CNC2CCCCC2)C1c1ccco1 (centres unmarked) [TRG 2405-17]	36	32.8	–
NCCN1Cc2ccccc2C(CNC2CCCCC2)C1c1ncc[nH]1 (centres unmarked) [TRG 2405-18]	35.9	34.7	–
COc1ccccc1C1C(CNC2CCCCC2)c2ccccc2CN1CCN (centres unmarked) [TRG 2405-19]	42.2	36.2	–
NCCN1Cc2ccccc2C(CNC2CCCCC2)C1c1ccc2ccccc2c1 (centres unmarked) [TRG 2405-20]	59.8	53.6	–
NCCN1Cc2ccccc2C(CNC2CCCCC2)C1c1ccccn1 (centres unmarked) [TRG 2405-21]	47.7	42.5	–
